This note sets out measurements from patent US6193954A, “Formulations for pulmonary delivery of dopamine agonists” (Abbott Laboratories, priority 1997, dated 2001).

A short description of data set [1]: Dispersion quality of MDI formulations (visual suspension quality after 24 hours). The format is physicochemical. As to conditions: HFC-134a. The method, then:
A determination of the dispersion quality of several MDI formulations prepared with HFA-134a was conducted as follows: Pluronic® L44 (BASF Corp., Parsippany, N.J.), drug and excipients being formulated were combined in the amounts shown in appropriate transparent aerosol containers (vials). The vials were crimped using a 100 μL Valois metered valve and charged with approximately 10 mL of HFC-134a. The container was shaken for about 30 minutes to blend the ingredients. The dispersion quality in each preparation was evaluated visually after 24 hours using the following criteria:
Poor: Phase separation; top phase clear, bottom phase containing solids
Fair: Partial phase separation; cloudiness in the top phase
Good: Grainy appearance; no phase separation
Excellent: Milky homogeneous appearance; no phase separation

Data set [2] can be described thus: Bioavailability of MDI compositions in dogs, inhalation vs intravenous (plasma diol). In kind it is in vivo, beagle dog. As to conditions: dog.
Text: The aerosol sprays were delivered anteriorly via a tracheal stoma in each subject animal (beagle dog).
Data set [3] in a line: Intratracheal administration of liquid formulation to tracheotomized dogs. In kind it is in vivo. As to conditions: 0.1 mg/kg (approximately 0.5 ml), mannitol/water solution. As to the method: The viscosity of the administered solution was similar to water and the dose was squirted into the tube via pressure from a syringe filled with the liquid formulation. This formlation would not be administered through nasal or mouth means.
The solution used in the intratracheal administration contained the following:
Compound of example 1 6.9 mg/ml
with water for Injection as the solvent.
The above percentages may be varied by one of ordinary skill in the art to provide various dosages and/or ratios of the above excipients or compounds.

Structures are written as SMILES. Counter-ions that a name gives are not always drawn.

Turning to `CCCc1cc2c(s1)CN[C@@H]1CCc3cc(OC(C)=O)c(OC(C)=O)cc3[C@@H]21` [Compound of Example 1, (5aR-trans)-4,5,6,7,11b-hexahydro-2-propylbenzo[f]thieno[2,3-c]quinoline-9,10-diol, diacetate (ester) hydrochloride], the “Suspension Quality” value in data set [1] (20 mg drug, 0 Pluronic L44, 0 tocopherol acetate) is reported as “good”; in data set [1] (20 mg drug, 3 Pluronic L44, 0 tocopherol acetate) it was “good”; in data set [1] (20 mg drug, 3 Pluronic L44, 2 mg tocopherol acetate), “good”; in data set [1] (20 mg drug, 5 Pluronic L44, 0 tocopherol acetate), “good”; in data set [1] (20 mg drug, 5 Pluronic L44, 2 mg tocopherol acetate), “good”; in data set [1] (40 mg drug, 0 Pluronic L44, 0 tocopherol acetate), “good”. The “Suspension Quality” value in data set [1] (40 mg drug, 3 Pluronic L44, 0 tocopherol acetate) is reported as “good”; in data set [1] (40 mg drug, 3 Pluronic L44, 2 mg tocopherol acetate), “good”; in data set [1] (40 mg drug, 5 Pluronic L44, 0 tocopherol acetate), “good”; in data set [1] (40 mg drug, 5 Pluronic L44, 2 mg tocopherol acetate), “good”. Further, in data set [2] (inhalation), the “lung absorption following inhalation delivery vs I.V. administration” value was “occurs more efficiently than I.V. administration”. Moreover, the “absorption upon delivery to the lungs” value in data set [2] (suspended in HFC-134a) is reported as “well absorbed upon delivery to the lungs”. The “delivery on intratracheal administration” value in data set [3] is listed as “effectively delivered”.
